Marks after values point to notes of the source that are not given here.
Experiments:
[1] = Log Kow; type: physicochemical
[2] = tested on: male OF1 mice; assay: Hot plate test (52° C., jump latency) in mice; type: in vivo, mouse
Procedure: Hot plate test: this test relates to the licking and jumping reflex in mice on a plate heated at 52° C. (measurement of jump latency in the examples given). The results are expressed in % of maximum possible effect (% MPE), i.e., expressed as a percentage of analgesia, using the following equation:
Maximum latency time=240 seconds.
The results are expressed in term of mean±SEM. The differences observed are considered significant when the values of p are less than 0.05. The test used is an ANOVA test with a multiple comparison test.
Compound 15 is dissolved in a water/mannitol mixture (50 mg/ml). Jump latency times are measured 10 min after the injections by intravenous route.
Compound 15 is dissolved in a ethanol/Cremophor® EL/water mixture. Jump latency times are measured 10 min after intravenous injection.
Compound 15 is dissolved in an ethanol/PEG400/water 10/40/50 mixture.
Compounds 15 and A are dissolved in an ethanol/Cremophor EL/water 10/10/80 mixture. Jump latency times are measured 10 min after intravenous injection.
The analgesia produced by morphine or compound 15 in mice (male OF1) in the hot plate test (52° C.) was measured. Morphine in H2O/NaCl, 9/1000) or compound 15 dissolved in the vehicle EtOH/Cremophor El/water (10/10/80) is injected by IV. The results are measured 10 minutes after injection and latency time is 240 seconds (equation given in examples 15 and 17).
The analgesia produced by Δ^9 THC in mice (male OF1) in the plate hot test (52° C.) was measured. Δ^9 THC, dissolved in the vehicle EtOH/Cremophor EL/water (10/10/80), is injected by IV route. The results are measured 10 minutes after injection and latency time is 240 seconds (equation given in examples 15 and 17).
This test relates to the licking and jumping reflex in mice on a plate heated at 52° C. The results are expressed in % of maximum possible effect (% MPE), i.e., expressed as a percentage of analgesia, using the following equation:
Maximum latency time=240 s.
The mice weigh 25-30 grams.
Jump latency is measured 10 minutes after intravenous injection.

[3] = tested on: mice inoculated in their right paw with NCTC 2472 cells; assay: Osteosarcoma-induced thermal hyperalgesia, unilateral hot plate test; type: in vivo, mouse
Excerpt: The comparison and possible facilitation of compound 15 analgesic effect by Gabapentin was investigated on the animal model of bone cancer induced by intraosteal inoculation of NCTC2472 tumor cells (Honoré P. et al., Neuroscience 98 (2000), 585-588 Mendez L. et al. J. Neurosci. Methods 113 (2002), 91-97).
The methods used to measure the analgenisc effects (antihyperalgesia and allodynia) of various compounds of this animal model have been described in details and are used (Menendez L. et al. Brain Res. 969 (2003), 102-109) in these series of experiments.
Osteosarcoma-induced thermal hyperalgesia measured by the unilateral hot plate test was inhibited by the oral administration of compound 15 (25 mg/kg). This inhibitory effect peaked 20-40 min after compound 15 administration, disappearing at time 60 (FIG. 4A).
At this concentration the antagonist is unable to enter the brain supporting a peripheral analgesic effects of compound 15. ** p≦0.01. […]

[4] = Solubility in solvents; type: physicochemical

CCOC(=O)OC(C)OC(=O)CNC(=O)C(CSSCC(N)CCSC)Cc1ccccc1.O=C(O)C(F)(F)F (stereo not shown) [Compound 12k]
Log Kow [1]: 1.39

1-(2-(1-ethoxycarbonylmethyloxycarbonylethylcarbamoyl)-3-thiophen-3-yl-propyldi sulfanylmethyl)-3-methylsulfanylpropyl-ammonium trifluoroacetate [Compound 12d]
Log Kow [1]: 1.35

CCOC(=O)OC(C)OC(=O)C(C)NC(=O)C(CSSCC(N)CCSC)Cc1ccsc1.O=C(O)C(F)(F)F (stereo not shown) [Compound 12c]
Log Kow [1]: 1.63

CCCCCc1cc(O)c2c(c1)OC(C)(C)[C@@H]1CCC(C)=C[C@@H]21 [Δ^9 THC, Δ^9 tetrahydrocannabinol, reference compound]
% analgesia ([2]; 0.188 mg/kg IV, EtOH/Cremophor EL/water, 10 min after injection): 0.4 ± 3.9%
% analgesia ([2]; 0.375 mg/kg IV, EtOH/Cremophor EL/water, 10 min after injection): 18.2 ± 6.4%
% analgesia ([2]; 0.75 mg/kg IV, EtOH/Cremophor EL/water, 10 min after injection): 41.2 ± 12.7 %
% analgesia ([2]; 1.5 mg/kg IV, EtOH/Cremophor EL/water, 10 min after injection): 57.2 ± 10.9 %

CSCCC(N)CSSCC(Cc1ccsc1)C(=O)NC(C)C(=O)OC(COC(C)=O)COC(C)=O.O=C(O)C(F)(F)F (stereo not shown) [Compound 12f, 1-(2-(1-(2-acetoxy-1-acetoxymethylethoxycarbonyl)-ethylcarbamoyl)-3-thiophen-3-ylpropyldisulfanylmethyl)-3-methylsulfanylpropyl-ammonium trifluoroacetate]
Log Kow [1]: 1.31

CSCCC(N)CSSCC(Cc1ccsc1)C(=O)NC(C)C(=O)OCC(COC(C)=O)OC(C)=O.O=C(O)C(F)(F)F (stereo not shown) [Compound 12a, 1-(2-(1-(2,3-diacetoxypropoxycarbonyl)-ethylcarbamoyl)-3-thiophen-3-ylpropyldisulfanylmethyl)-3-methylsulfanylpropyl-ammonium trifluoroacetate]
Log Kow [1]: 1.31

NCC1(CC(=O)O)CCCCC1 [Gabapentin]
Antihyperalgesic effect ([3]; 6.25 mg/kg i.p., 60 minutes after injection (FIG. 6B)): subeffective
Antihyperalgesic effect ([3]; 12.5 mg/kg i.p., 60 minutes after injection): significant antihyperalgesic effect
Antihyperalgesic effect ([3]; 25 mg/kg i.p., 40 and 60 min after injection (FIG. 6A)): clear antihyperalgesic effect
Withdrawal latencies ([3]; 25 mg/kg i.p., 20 min after administration): No modification of withdrawal latencies
Antihyperalgesic effect ([3]; 25 mg/kg i.p., 60 minutes after injection): completely suppressed the hyperalgesic effect
Withdrawal latencies of contralateral paws ([3]; 6.25-25 mg/kg i.p.): None of these doses of Gabapentin modified the withdrawal latencies of contralateral paws
Antihyperalgesic effect when administered alone ([3]; compound 15 12.5 mg/kg 20 min before testing, or Gabapentin 6.25 mg/kg 60 min before testing): do not produce any antihyperalgesic effect

CN1CC[C@]23c4c5ccc(O)c4O[C@H]2[C@@H](O)C=C[C@H]3[C@H]1C5 [morphine, reference compound]
% analgesia ([2]; 1 mg/kg IV, 10 min after injection (Table 6)): 45.5 ± 4.5 %
% analgesia ([2]; 2.5 mg/kg IV, 10 min after injection (Table 6)): 66 ± 6.0 %
% analgesia ([2]; 5 mg/kg IV, 10 min after injection (Table 6)): 100*** %
ED50 ([2]; Mus musculus, iv, 10 min, read-out: ED50 (analgesic response)): 1.3 ± 0.2 mg/kg

1-(2-(1-(1-ethoxycarbonyloxyethoxycarbonyl)-2-hydroxypropylcarbamoyl)-3-thiophen-3-ylpropyldisulfanylmethyl)-3-methylsulfanylpropyl-ammonium trifluoroacetate [Compound 12e]
Log Kow [1]: 0.76

CSCCC(N)CSSCC(Cc1ccsc1)C(=O)NC(C)C(=O)OC(CO)CO.O=C(O)C(F)(F)F (stereo not shown) [Compound 12g, 1-(2-(1-(2-hydroxy-1-hydroxymethylethoxycarbonyl)-ethylcarbamoyl)-3-thiophen-3-ylpropyldisulfanylmethyl)-3-methylsulfanylpropyl-ammonium trifluoroacetate]
Log Kow [1]: −0.29

CSCCC(N)CSSCC(Cc1ccsc1)C(=O)NC(C)C(=O)OCC1OC(O)C(O)C(O)C1O.O=C(O)C(F)(F)F (stereo not shown) [Compound 12h, 1-(2-(1-(3,4,5,6-tetrahydroxytetrahydropyran-2-ylmethoxycarbonyl)ethylcarbamoyl)-3-thiophen-3-yl-propyldisulfanylmethyl)-3-methylsulfanylpropyl-ammonium trifluoroacetate]
Log Kow [1]: −1.15

CSCCC(N)CSSCC(Cc1ccccc1)C(=O)NC(Cc1ccccc1)C(=O)OCc1ccccc1 (stereo not shown) [Compound A, reference compound]
% analgesia ([2]; 5 mg/kg IV, ethanol/Cremophor EL/water 10/10/80, 10 min after injection (Table 5)): 51.1 ± 7.6 %
Solubility in aqueous or hydrophilic solvents [4]: poorly soluble

CSCCC(N)CSSCC(Cc1ccsc1)C(=O)NC(C)C(=O)OCCS(C)(=O)=O.O=C(O)C(F)(F)F (stereo not shown) [Compound 12b, 1-(2-(1-(2-methanesulfonylethoxycarbonyl)-ethylcarbamoyl)-3-thiophen-3-ylpropyldisulfanylmethyl)-3-methylsulfanylpropyl-ammonium trifluoroacetate]
Log Kow [1]: −0.13

CCOC(=O)OC(C)OC(=O)C(NC(=O)C(CSSCC(N)CCSC)Cc1ccccc1)C(C)O.O=C(O)C(F)(F)F (stereo not shown) [Compound 12i]
Log Kow [1]: 0.76

CSCCC(N)CSSCC(Cc1ccccc1)C(=O)NC(C(=O)OC(COC(C)=O)COC(C)=O)C(C)O.O=C(O)C(F)(F)F (stereo not shown) [Compound 12j, 1-(2-(1-(2-acetoxy-1-acetoxymethyl-thoxycarbonyl)-2-hydroxypropylcarbamoyl)-3-phenylpropyldisulfanylmethyl)-3-methylsulfanylpropyl-ammonium trifluoroacetate]
Log Kow [1]: 0.44

Reference: patent US8247609B2, “Aminoacid derivatives containing a disulfanyl group in the form of mixed disulfanyl and aminopeptidase N inhibitors” (Pharamleads, priority 2005, dated 2012)
